Reference: patent US20110039793A1, “Application of ginsenoside Rb1 in preparing medicaments for treating dilated cardiomyopathy” (priority 2008, published 2011)

Legend:
[1] = test system: cTnT^R141W transgenic dilated cardiomyopathy mice model; test: M-mode echocardiography, cardiac function and morphous, once a month; type: in vivo; set-up: CO (Cardiac Output) / LVAW; d (left ventricular anterior wall thickness, end of diastole) / LV Mass (AW) (weight of the left ventricular) / Diameter; d (inner diameter of the left ventricular, end of diastole) / Volume; d (volume of the left ventricular, end of diastole) / SV (Stroke Volume): unit not given here; details: for Diameter; s (inner diameter of the left ventricular, end of systole) / EF (Ejection Fraction) / FS (Fractional Shortening) / LV Mass (AW) (weight of the left ventricular) / LVAW; d (left ventricular anterior wall thickness, end of diastole) / LVAW; s (left ventricular anterior wall thickness, end of systole) / LVPW; d (left ventricular posterior wall thickness, end of diastole) / LVPW; s (left ventricular posterior wall thickness, end of systole) / SV (Stroke Volume) / Volume; d (volume of the left ventricular, end of diastole) / Volume; s (volume of the left ventricular, end of systole) / CO (Cardiac Output) / Diameter; d (inner diameter of the left ventricular, end of diastole): 75 mg/kg in drinking water
Procedure: (§1) The positive mice at 1.5 months old are distributed by weight and cardiac function uniformly into the model group and the ginsenoside Rb1 administration group according to the echocardiography result, and each group comprises twelve mice. Ginsenoside Rb1, 75 mg/kg (State Yao zhun Zi, Yun Nan Tean Na Pharmaceutical Co., Ltd) is put into animal drinking water, and continuously administered for seven months.
Echocardiography detection is performed once a month. Mice were anesthetized with tribromoethanol, scanned by small animal ultrasonic apparatus (Vevo 770 small animal ultrasonic detection system, Canada), with 30 MHz probe, M-mode echocardiography were analyzed: Body weight (BW), LVPW, d (the thickness of the left ventricular posterior wall at the end of the diastole), LVPW, s (the thickness of the left ventricular posterior wall at the end of the systole), LVAW, d (the thickness of the left ventricular anterior wall at the end of the diastole), LVAW, s (the thickness of the left ventricular anterior wall at the end of the systole), LV Mass (the weight of the left ventricular), Diameter, s (the inner diameter of the left ventricular at the end of the systole), Diameter, d (the inner diameter of the left ventricular at the end of the diastole), Volume, s (the volume of the left ventricular at the end of the systole), Volume, d (the volume of the left ventricular at the end of the diastole), SV (Stroke Volume), EF (Ejection Fraction), FS (Fractional Shortening) and CO (Cardiac Output).

[2] = test system: cTnT^R141W transgenic dilated cardiomyopathy mice model; test: Survival analysis of cTnT^R141W transgenic mice after long-term administration; type: in vivo; details: 75 mg/kg in drinking water for seven months
Procedure: as §1
Individual death occurs in the feeding process of the cTnT^R141W transgenic mice model. From the beginning of administration to the observation endpoint, the death of animal of each group is recorded. The death of animal of the negative control group is zero, and the model group is four, and the ginsenoside Rb1 group is two.

[3] = long-term administration, echocardiography

CC(C)=CCC[C@](C)(O[C@@H]1O[C@H](CO[C@@H]2O[C@H](CO)[C@@H](O)[C@H](O)[C@H]2O)[C@@H](O)[C@H](O)[C@H]1O)[C@H]1CC[C@]2(C)[C@@H]1[C@H](O)C[C@@H]1[C@@]3(C)CC[C@H](O[C@@H]4O[C@H](CO)[C@@H](O)[C@H](O)[C@H]4O[C@@H]4O[C@H](CO)[C@@H](O)[C@H](O)[C@H]4O)C(C)(C)[C@@H]3CC[C@]12C [Rb1, ginsenoside Rb1]
Diameter; s (inner diameter of the left ventricular, end of systole) ([1]; 4 month of administration): 3.38 ± 0.35 | EF (Ejection Fraction) ([1]; 4 month of administration): 51.07 ± 6.01 | FS (Fractional Shortening) ([1]; 4 month of administration): 26.05 ± 3.64 | LV Mass (AW) (weight of the left ventricular) ([1]; 4 month of administration): 131.15 ± 12.93 | LVAW; d (left ventricular anterior wall thickness, end of diastole) ([1]; 4 month of administration): 0.81 ± 0.06 | LVAW; s (left ventricular anterior wall thickness, end of systole) ([1]; 4 month of administration): 1.17 ± 0.11 | LVPW; d (left ventricular posterior wall thickness, end of diastole) ([1]; 4 month of administration): 0.71 ± 0.06 | LVPW; s (left ventricular posterior wall thickness, end of systole) ([1]; 4 month of administration): 0.89 ± 0.12 | SV (Stroke Volume) ([1]; 4 month of administration): 48.37 ± 3.32 | Volume; d (volume of the left ventricular, end of diastole) ([1]; 4 month of administration): 95.93 ± 13.01 | Volume; s (volume of the left ventricular, end of systole) ([1]; 4 month of administration): 47.56 ± 11.76 | CO (Cardiac Output) ([1]; 5 month of administration): 23.18 ± 3.13 | Diameter; d (inner diameter of the left ventricular, end of diastole) ([1]; 5 month of administration): 4.93 ± 0.30 | Diameter; s (inner diameter of the left ventricular, end of systole) ([1]; 5 month of administration): 3.86 ± 0.32 | EF (Ejection Fraction) ([1]; 5 month of administration): 43.83 ± 3.93 | FS (Fractional Shortening) ([1]; 5 month of administration): 21.76 ± 2.21 | LV Mass (AW) (weight of the left ventricular) ([1]; 5 month of administration): 150.86 ± 25.12 | LVAW; d (left ventricular anterior wall thickness, end of diastole) ([1]; 5 month of administration): 0.82 ± 0.12 | LVAW; s (left ventricular anterior wall thickness, end of systole) ([1]; 5 month of administration): 1.13 ± 0.10 | LVPW; d (left ventricular posterior wall thickness, end of diastole) ([1]; 5 month of administration): 0.74 ± 0.06 | LVPW; s (left ventricular posterior wall thickness, end of systole) ([1]; 5 month of administration): 0.82 ± 0.08 | SV (Stroke Volume) ([1]; 5 month of administration): 50.03 ± 5.63 | Volume; d (volume of the left ventricular, end of diastole) ([1]; 5 month of administration): 115.02 ± 16.33 | Volume; s (volume of the left ventricular, end of systole) ([1]; 5 month of administration): 64.99 ± 12.65 | CO (Cardiac Output) ([1]; 6 month of administration): 25.99 ± 2.23 | Diameter; d (inner diameter of the left ventricular, end of diastole) ([1]; 6 month of administration): 5.35 ± 0.19 | Diameter; s (inner diameter of the left ventricular, end of systole) ([1]; 6 month of administration): 4.38 ± 0.19 | EF (Ejection Fraction) ([1]; 6 month of administration): 37.03 ± 3.07 | FS (Fractional Shortening) ([1]; 6 month of administration): 18.01 ± 1.71 | LV Mass (AW) (weight of the left ventricular) ([1]; 6 month of administration): 180.65 ± 5.80 | LVAW; d (left ventricular anterior wall thickness, end of diastole) ([1]; 6 month of administration): 0.74 ± 0.04 | LVAW; s (left ventricular anterior wall thickness, end of systole) ([1]; 6 month of administration): 1.09 ± 0.09 | LVPW; d (left ventricular posterior wall thickness, end of diastole) ([1]; 6 month of administration): 0.80 ± 0.01 | LVPW; s (left ventricular posterior wall thickness, end of systole) ([1]; 6 month of administration): 0.93 ± 0.06 | SV (Stroke Volume) ([1]; 6 month of administration): 51.20 ± 5.31 | Volume; d (volume of the left ventricular, end of diastole) ([1]; 6 month of administration): 138.41 ± 11.40 | Volume; s (volume of the left ventricular, end of systole) ([1]; 6 month of administration): 87.21 ± 8.99 | CO (Cardiac Output) ([1]; 7 month of administration): 24.35 ± 4.80 | Diameter; d (inner diameter of the left ventricular, end of diastole) ([1]; 7 month of administration): 5.46 ± 0.34 | Diameter; s (inner diameter of the left ventricular, end of systole) ([1]; 7 month of administration): 4.60 ± 0.44 | EF (Ejection Fraction) ([1]; 7 month of administration): 33.02 ± 6.64 | FS (Fractional Shortening) ([1]; 7 month of administration): 15.92 ± 3.53 | LV Mass (AW) (weight of the left ventricular) ([1]; 7 month of administration): 190.72 ± 20.29 | LVAW; d (left ventricular anterior wall thickness, end of diastole) ([1]; 7 month of administration): 0.79 ± 0.12 | LVAW; s (left ventricular anterior wall thickness, end of systole) ([1]; 7 month of administration): 1.08 ± 0.17 | LVPW; d (left ventricular posterior wall thickness, end of diastole) ([1]; 7 month of administration): 0.82 ± 0.13 | LVPW; s (left ventricular posterior wall thickness, end of systole) ([1]; 7 month of administration): 0.87 ± 0.19 | SV (Stroke Volume) ([1]; 7 month of administration): 47.35 ± 6.92 | Volume; d (volume of the left ventricular, end of diastole) ([1]; 7 month of administration): 145.92 ± 21.42 | Volume; s (volume of the left ventricular, end of systole) ([1]; 7 month of administration): 98.58 ± 22.36 | cardiac function [1, 3]: improve the cardiac function | dilation of cardiac chamber [1, 3]: significantly reduce | mortality rate (survival analysis, FIG. 2) ([2]; vs model group): reduce the mortality rate | death of animal of the group (number) ([2]; group of twelve mice, model group four, negative control zero): two
